According to patent US20170183318A1, “AMIDE COMPOUNDS, METHODS FOR PREPARATION, AND USE THEREOF AS AGENTS FOR THE TREATMENT AND PREVENTION OF DISEASES CAUSED BY RNA- AND/OR DNA-CONTAINING VIRUSES, AND CONCOMITANT DISEASES” (OBSCHESTVO S OGRANICHENNOI OTVETSTVENNOSTIYU …, priority 2014, published 2017):
Like-named read-outs stand apart in the source and are kept apart here. Starred links: 1 amine or outer side, 2 acyl side, 3 side chain; linkers in the order of their positions; H or OH if unused. Non-standard residues stand in square brackets, D forms with d. Residues, ends and D or L forms follow the SMILES beside them. ξ: configuration not given here. Glutaryl = O=C(CCCC(=O)[*:2])[*:1]; ξH = NC(Cc1c[nH]cn1)C(=O)O

What was measured:
[1] = test system: herpes simplex virus belonging to antigenic type 2; assay: Murine model of experimental herpetic meningoencephalitis (mortality); assay type: in vivo, white outbred mice; conditions: Mus musculus, po, 336 h
Protocol: In the study, herpes simplex virus belonging to antigenic type 2 was used. White outbred mice weighing 7-8 g were infected i/c (intracerebrally) in a volume of 0.05 ml/mouse comprising a dose of 10LD50. The infectious dose of the virus that caused 100% mortality in mice was 10LD50. Each experimental group comprised 20 mice. Intact animals served as control and were hold in a separate room under the same conditions as the experimental animals. The antiviral activity of the compounds of general formula I was studied by oral administration of the compounds to infected mice once daily at a dose of 30 mg/kg/mouse 24, 48, 72, 96, and 120 hours after infection of the animals with the virus. The mice of the control group were administered placebo (0.2 mL of physiological solution) under the same conditions. The animals were monitored for 14 days after infection by registration the mouse death in the groups.
Each animal was subjected to once-daily observation. The observation included the assessment of general behavior and body condition of animals. The animals were handled according to the International Standards.
The activity of the compounds was evaluated by comparing mortality rates in the groups of animals administered a preparation and placebo.

[2] = Rat model of nasopharyngitis induced by formalin (nasal mucosa changes, cell elements in nasal lavage); assay type: in vivo; conditions: Wistar rats, 18 mg/kg for 3 days; for Mucous membrane of nasal passages: Without changes (number of animals): number of animals out of n = 10, control 0 of 20; for Mucous membrane of nasal passages: Discharge mucus from the nasal passages (number of animals): number of animals out of n = 10, control 20 of 20
Protocol: Nasopharyngitis was induced by intranasal administration of formalin to each nasal passage of rats.
The administration of formalin to the nasal passages of rats leads to the dissemination of inflammation to adjacent tissues, resulting in a clinical pattern similar to the symptoms of nasopharyngitis in a human.
After an acclimatization period, the following groups were formed: • intact animals administered intragastrically a physiological solution in an amount of 0.2 ml, without induction of nasopharyngitis; • a control group consisted of animals administered intragastrically a physiological solution in an amount of 0.2 ml for 3 days after induction of nasopharyngitis; and • animals administered the studied compounds at a dose of 18 mg/kg for 3 days after induction of nasopharyngitis.
Clinical observation of each animal was performed every day at least twice daily.
The caused pathology was characterized by hyperplasia, increased number of caliciform cells, pronounced infiltration of mononuclear cells and leucocytes, and mucus hyperproduction by submucosal glands.
After euthanasia, the inflammation pattern in the nasal passages and throat was studied in each group of animals. The nasal passages were washed with 5 mL of physiological solution and the score of cell elements were counted in 1 μL.

[3] = test system: human virus hRSV; assay: Antiviral activity against mouse-adapted RS virus (body weight; viral titer in lungs titrated in Hep-2 cells); assay type: in vivo, mice; conditions: for Body weight of the mice on day 5 after infection with hRSV (M ± SD) / Body weight of the mice on day 7 after infection with hRSV (M ± SD) / hRSV in the lungs of mice, Day 5, lg / hRSV in the lungs of mice, Day 7, lg: compounds 30 mg/kg, Ribavirin 40 mg/kg; for Body weight of the mice on day 5 after infection with hRSV (M ± SD) / Body weight of the mice on day 7 after infection with hRSV (M ± SD): orally once daily for 5 days, n = 6; for hRSV in the lungs of mice, Day 5, lg / hRSV in the lungs of mice, Day 7, lg: 10% lung suspension titrated in Hep-2 cells (TCID); for log reduction at 30 mg/kg: human respiratory syncytial virus, HEp-2, po
Protocol: Antiviral effectiveness of the chemical compounds against RSV in an experimental murine model in vivo was determined for human virus hRSV that was previously adapted to the growth in mouse lungs. The animals were infected with the virus at a dose of 0.5 log TCID50 intranasally under brief ether anesthesia in a volume of 0.05 ml/mouse. The studied compounds were administered orally once daily for 5 days according to the treatment regimen at a dose of 30 mg/kg. The first administration was made 24 hours after infection. Normal saline solution was administered to mice as placebo. Intact animals served as a negative control and were hold in a separate room under the same conditions as the experimental animals. Each experimental group comprised 12 animals.
The antiviral activity of the studied compounds was determined by the efficiency in the prevention of weight loss and by suppression of the reproduction of hRSV in the mouse lungs by measuring a viral titer in the experimental groups relative to the control on days 5 and 7 after infection.
In addition, the therapeutic action of the compounds of general formula I was determined by their ability to suppress the reproduction of hRSV in the mouse lungs on days 5 and 7 after infection. The viral titer was determined by the titration of a 10% lung suspension in Hep-2 cell culture. The result was registered 2 days after the incubation at 37° C. by TCID.

[4] = test system: human respiratory syncytial virus (strain A2); assay: Antiviral activity against RS virus in a murine model of suppressed immune system (lung edema); assay type: in vivo; conditions: Balb/c mice, cyclophosphan-suppressed, RS-virus pneumonia; 30 mg/kg once daily for 5 days; M ± SD, n = 5; scores from possible 4
Protocol: Antiviral activity of the chemical compounds against human respiratory syncytial virus (strain A2, an infectious titer of 5×10^6 TCID50/mL) was assessed in a Balb/c murine model of viral pneumonia. The virus was inoculated to animals intranasally in a volume of 50 μL under brief ether anesthesia. The immune response in animals to RS virus was suppressed by intraperitoneal administration of cyclophosphan at a dose of 100 mg/kg 5 days before infection. The studied compounds were administered according to the treatment regimen once daily at a dose of 30 mg/kg for 5 days, starting 24 hours after infection. The activity of the compounds was determined by a reduction in edema of the lung infected with respiratory syncytial virus, compared to the control, on day 5 after infection.

[5] = test system: Coxsackie A2 virus (strain HCXV A2); assay: Antiviral activity against Coxsackie virus in vivo (mortality and life expectancy of infected mice)
Protocol: In the study a trypsin-dependent strain HCXV A2 was used, previously adapted and causing death in mice from Coxsackie virus infection.
The experiment was carried out in white mice weighing 6 to 7 g. The animals were infected intramuscularly with a dose of 0.1 mL/mouse. The used infectious dose causing mortality in mice was 10LD50.
The ability of compounds to provide a therapeutic effect was determined by the mortality rate of HCXV A2 virus-infected mice in the experimental group relative to the group of untreated animals.
The studied compounds and placebo were administered orally according to the treatment regimen. Normal saline solution was administered to mice as placebo. Intact animals served as a negative control and were hold in a separate room under the same conditions as the experimental animals.
For the experiment, groups were formed with 14-15 animals each. Compounds were administered at a dose of 30 mg/kg of body weight. The studied compounds were administered orally once daily for 7 days (first administration was made 24 hours after infection). The animals were monitored for 15 days during which the animals were weighed and the mortality rate was registered every day.

[6] = 120 h, read-out: Suppression of the reproduction of hRSV in the lungs of mice, Day 5, Δlg
[7] = 168 h, read-out: Suppression of the reproduction of hRSV in the lungs of mice, Day 7, Δlg

Structure (SMILES): CC(NC(=O)C(Cc1cnc[nH]1)NC(=O)CCCC(=O)O)C(N)=O (stereo not drawn) [Compound 92] (Glutaryl-His-Ala-NH2; configuration not given here)
- mortality at 30 mg/kg [1]: 25%
- Mucous membrane of nasal passages: Without changes (number of animals) [2]: 6
- Mucous membrane of nasal passages: Discharge mucus from the nasal passages (number of animals) [2]: 4

Structure (SMILES): O=C(O)CCCC(=O)NCCC1CCNCC1 [Compound 7]
- Body weight of the mice on day 5 after infection with hRSV (M ± SD) [3]: 17.17 ± 0.26
- Body weight of the mice on day 7 after infection with hRSV (M ± SD) [3]: 18.53 ± 0.55
- mortality at 30 mg/kg [1]: 20%
- Mucous membrane of nasal passages: Without changes (number of animals) [2]: 6
- Mucous membrane of nasal passages: Discharge mucus from the nasal passages (number of animals) [2]: 4

Structure (SMILES): O=C(O)CCCC(=O)NCCc1cn[nH]n1 [Compound 126]
- mortality at 30 mg/kg [1]: 40%
- Mucous membrane of nasal passages: Without changes (number of animals) [2]: 4
- Mucous membrane of nasal passages: Discharge mucus from the nasal passages (number of animals) [2]: 6

Structure (SMILES): O=C(O)CCCC(=O)NCCc1cc[nH]n1 [Compound 15]
- mortality at 30 mg/kg [1]: 30%
- Mucous membrane of nasal passages: Without changes (number of animals) [2]: 7
- Mucous membrane of nasal passages: Discharge mucus from the nasal passages (number of animals) [2]: 3

Structure (SMILES): O=C(O)CCCC(=O)NCCC1CCNC1 (stereo not drawn) [Compound 1]
- hRSV in the lungs of mice, Day 5, lg [3]: 2.88 ± 0.59 lg
- Body weight of the mice on day 5 after infection with hRSV (M ± SD) [3]: 16.43 ± 0.14
- hRSV in the lungs of mice, Day 7, lg [3]: 1.46 ± 0.17 lg
- Body weight of the mice on day 7 after infection with hRSV (M ± SD) [3]: 17.98 ± 0.26
- log reduction at 30 mg/kg [3, 6]: 1.73 ± 0.59
- log reduction at 30 mg/kg [3, 7]: 2.34 ± 0.17
- Degree of lung edema on day 5 after infection, score [4]: 1.3 ± 0.27 score

Structure (SMILES): COC(=O)CNC(=O)C(Cc1c[nH]cn1)NC(=O)CCCC(=O)O (stereo not drawn) [Compound 193] (Glutaryl-[ξH]-Gly-OMe)
- Degree of lung edema on day 5 after infection, score [4]: 0.80 ± 0.17 score
- mortality at 30 mg/kg [1]: 25%
- inhibition in vivo at 30 mg/kg ([5]; Mus musculus, po, 168 h, 30 mg/kg orally once daily for 7 days, vs virus control, read-out: Protective index (%)): 45.3%
- mortality at 30 mg/kg ([5]; Mus musculus, po, 360 h, read-out: Total mortality, %): 40.1%
- Average life expectancy (days), Compared with control ([5]; difference vs virus control, 30 mg/kg orally once daily for 7 days): +14.2 days
- Average life expectancy (days), Relative ([5]; mice infected with 10LD50 HCXV A2, 30 mg/kg orally once daily for 7 days): 24.9 days
- Mucous membrane of nasal passages: Without changes (number of animals) [2]: 6
- Mucous membrane of nasal passages: Discharge mucus from the nasal passages (number of animals) [2]: 4

Structure (SMILES): O=C(O)CCCC(=O)NCCc1cnco1 [Compound 123]
- hRSV in the lungs of mice, Day 5, lg [3]: 2.50 ± 0.43 lg
- Body weight of the mice on day 5 after infection with hRSV (M ± SD) [3]: 15.87 ± 0.20
- hRSV in the lungs of mice, Day 7, lg [3]: 1.33 ± 0.19 lg
- Body weight of the mice on day 7 after infection with hRSV (M ± SD) [3]: 17.55 ± 0.53
- log reduction at 30 mg/kg [3, 6]: 2.1 ± 0.43
- log reduction at 30 mg/kg [3, 7]: 2.62 ± 0.5
- Degree of lung edema on day 5 after infection, score [4]: 1.30 ± 0.17 score
